Measured values published in patent US8304539B2, “Fused heteroaryl modulators of glucocorticoid receptor, AP-1, and/or NF-κB activity and use thereof” (Bristol-Myers Squibb Company, priority 2008, dated 2012).

Molecular target: T1, human full-length glucocorticoid receptor (Homo sapiens, UniProt P04150)
T1 construct: recombinantly expressed human full-length glucocorticoid receptor; purchased PanVera Co., Madison, Wis; P2816
T1 sequence (P04150 1-777): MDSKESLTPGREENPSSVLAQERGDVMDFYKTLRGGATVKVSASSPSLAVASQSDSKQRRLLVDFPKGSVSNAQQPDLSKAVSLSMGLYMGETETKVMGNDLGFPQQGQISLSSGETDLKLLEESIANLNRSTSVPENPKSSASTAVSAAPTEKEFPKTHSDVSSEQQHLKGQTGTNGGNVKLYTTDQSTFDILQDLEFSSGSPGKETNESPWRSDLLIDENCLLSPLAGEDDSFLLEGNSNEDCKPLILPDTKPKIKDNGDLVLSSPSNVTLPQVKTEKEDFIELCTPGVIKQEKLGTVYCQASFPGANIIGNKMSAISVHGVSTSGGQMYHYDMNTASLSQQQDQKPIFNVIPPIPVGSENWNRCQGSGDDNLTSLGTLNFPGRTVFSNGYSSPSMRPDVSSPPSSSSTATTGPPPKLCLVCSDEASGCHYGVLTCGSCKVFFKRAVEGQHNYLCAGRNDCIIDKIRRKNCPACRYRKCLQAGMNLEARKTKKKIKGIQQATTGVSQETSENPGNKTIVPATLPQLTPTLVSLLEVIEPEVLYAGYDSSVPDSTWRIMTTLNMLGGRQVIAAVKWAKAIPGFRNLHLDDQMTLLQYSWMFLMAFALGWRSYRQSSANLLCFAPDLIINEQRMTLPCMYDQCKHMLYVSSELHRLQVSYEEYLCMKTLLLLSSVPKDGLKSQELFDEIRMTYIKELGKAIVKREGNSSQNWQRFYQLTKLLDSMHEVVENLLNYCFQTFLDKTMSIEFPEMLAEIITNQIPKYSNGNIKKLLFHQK
Experiment: GR binding Assay II (fluorescence polarization competitor assay)
Conditions: given where AP-1 EC50 is greater than 1 uM and/or maximal inhibition is less than 20%; read-out: GR (Ki, nM) (measured in GR binding Assay II)
Procedure: Glucocorticoid Receptor Binding Assay (II)
In order to measure the binding of compounds on the glucocorticoid receptor a commercially available kit was used (Glucocorticoid receptor competitor assay kit, PanVera Co., Madison, Wis., P2816). Briefly, a cell lysate containing recombinantly expressed human full-length glucocorticoid receptor was mixed with a fluorescently labeled glucocorticoid (1 nM Fluormone GS1) in the presence or absence of test compound. After one hour at room temperature, the fluorescence polarization (FP) of the samples were measured. The FP of a mixture of receptor, fluorescent probe (i.e. Fluormone GS1) and 1 mM dexamethasone represented background fluorescence or 100% inhibition, whereas, the FP of the mixture without dexamethasone was taken to be 100% binding. The percentage inhibition of test molecules were then compared to the sample with 1 mM dexamethasone and expressed as % relative binding activity with dexamethasone being 100% and no inhibition is 0%. Test molecules were analyzed in the concentration range from 2.4 nM to 40 microMolar.

Ki [nM] | SMILES
199 | CC(C)(C(=O)Nc1nncs1)C1c2ccncc2Oc2nc(-c3ccc(C(=O)N4CCOCC4)cc3)ccc21 (centres unmarked) [Example 2, 2-methyl-2-(2-(4-(4-morpholinylcarbonyl)phenyl)-5H-pyrido[4′,3′:5,6]pyrano[2,3-b]pyridin-5-yl)-N-1,3,4-thiadiazol-2-ylpropanamide]
14.2 | Cc1ccc2c(n1)Oc1nc(-c3ccc(C(=O)N4CCCC4)c(F)c3)ccc1[C@H]2C(C)(C)C(=O)Nc1nncs1 [Example 28]
